Each structure is given as a SMILES string. Where a name gives a salt, the structure may show the parent alone.

One may read the IC50 as the concentration at which inhibition is half-maximal.

One assay has as its target hiNOS (Homo sapiens, UniProt P35228). The assay can be described thus: Citrulline Assay for Nitric Oxide Synthase, Human in vitro Enzyme Data, hiNOS. In kind it is biochemical.
Another assay concerns the target hecNOS (Homo sapiens, UniProt P29474). The assay can be described thus: Citrulline Assay for Nitric Oxide Synthase, Human in vitro Enzyme Data, hecNOS. Type of assay: biochemical.
The next assay has as its target hnaNOS (Homo sapiens, UniProt P29475). As to the kind of experiment: Citrulline Assay for Nitric Oxide Synthase, Human in vitro Enzyme Data, hnaNOS. Type of assay: biochemical.
Assay [1] deals with endotoxin (LPS) induced rise in plasma nitrites. As to the kind of experiment: In Vivo Assay: plasma nitrites after endotoxin (Low Dose LPS). Set-up: species or system Rats. The settings on record: plasma nitrites 5 hours post-treatment. On the procedure: Rats were treated with an intraperitoneal injection of 10 mg/kg of endotoxin (LPS) with or without oral administration of the nitric oxide synthase inhibitors.

Regarding `Cc1noc(=O)n1CCCC[C@H](N)C(=O)O` [Example 2, αS-amino-4,5-dihydro-3-methyl-5-oxo-1,2,4-oxadiazole-4-hexanoic acid, monohydrochloride], the IC50 amounted to 138 µM on hiNOS, 1140 µM at hecNOS and 159 µM against hnaNOS. Further, in assay [1] (i.v., 3 mg/kg/day), the “Low Dose LPS in vivo Effective Dose (i.v.), inh.” value is given as 83%. Besides, the “Low Dose LPS in vivo Effective Dose (p.o.), inh.” value is listed as 39% in assay [1] (3 mg/kg/day) and 42% in assay [1] (10 mg/kg/day).
